What all share (assay type): functional
Assay [1] is described as follows: (§1) Anti-platelet activity in rat platelet rich plasma assessed as inhibition of ADP and calcium-induced platelet aggregation at 100 uM pre-incubated at 37 degC for 10 mins and measured 30 mins after ADP and calcium addition.
The subject of assay [2] is Platelet. The assay is described as §1.
Assay [3] in a line: Anti-platelet activity in rat platelet rich plasma assessed as inhibition of ADP and calcium-induced platelet aggregation at 1650 uM incubated at 37 degC for 10 mins and measured 30 mins after ADP and calcium addition.
Assay [4] can be described thus: Anti-platelet activity in rat platelet rich plasma assessed as inhibition of ADP and calcium-induced platelet aggregation incubated at 37 degC for 10 mins and measured 30 mins after ADP and calcium addition.
Assay [5] relates to Platelet. The experiment in a line: Potency index, ratio of anti-platelet activity for aspirin to test compound in rat platelet rich plasma.

Calls of active or inactive are those of the source. The calls are words filed in the database; no cut-off is given here.

Regarding `O=c1c(O[C@@H]2O[C@H](CO)[C@@H](O)[C@H](O)[C@H]2O)c(-c2ccc(O)c(O)c2)oc2cc(O)cc(O)c12` [ISOQUERCETIN], the inhibition at 100 µM in assay [1] was 36.2%.

Turning to `O=C(O)c1ccc(O)c(O)c1`, in assay [2], the inhibition result was “inactive”. `O=c1ccoc2cc(O)cc(O)c12`: the inhibition at 100 µM in assay [1] came to 6.83%. For `CC(=O)Oc1ccccc1C(=O)O` [ASPIRIN], in assay [3], the inhibition at 1650 µM stood at 41.5%. As for `COc1c(-c2ccc(O)c(O)c2)oc2cc(O)cc(O)c2c1=O`, the inhibition entry in assay [2] was “inactive”.

In the case of `COc1c(-c2ccc(O)c(O)c2)oc2cc(O)ccc2c1=O`, the inhibition entry in assay [2] is “inactive”. Consider `Cc1c(O)cc2oc(-c3ccc(O)cc3)c(O)c(=O)c2c1O`, for which the inhibition at 100 µM in assay [1] was 26%. On the same count and under the same terms, next, `O=c1c(O)c(-c2ccc(O)c(O)c2)oc2cc(O)cc(O)c12` [QUERCETIN]: 16.8%; `O=C(O)/C=C/c1ccccc1` [CINNAMIC ACID]: 8.69%; `C[C@@H]1O[C@@H](Oc2c(-c3ccc(O)c(O)c3)oc3cc(O)cc(O)c3c2=O)[C@H](O)[C@H](O)[C@H]1O` [QUERCITRIN]: 2.13%. Turning to `COc1c(C)c(O)c2c(=O)c(O)c(-c3ccc(O)cc3)oc2c1C`, in assay [2], the inhibition entry was “inactive”. Still for that read-out and setting: in the case of `O=c1c(O)c(-c2ccc(O)cc2)oc2cc(O)cc(O)c12` it was “inactive”; in that of `COc1cc(O[C@@H]2O[C@H](COC(=O)c3cc(O)c(O)c(O)c3)[C@@H](O)[C@H](O)[C@H]2O)cc(O)c1OC`, “inactive”. As for `COc1cc(C(=O)O)cc(OC)c1O`, the inhibition entry in assay [2] was “inactive”. For the molecule `O=c1cc(-c2ccc(O)c(O)c2)oc2cc(O)ccc12`, the inhibition at 100 µM in assay [1] was 13.7%. With `O=c1cc(-c2ccc(O)c(O)c2)oc2cc(O)cc(O)c12` [LUTEOLIN], in assay [1], the inhibition at 100 µM was 26.6%.

On to `COC(=O)c1cc(O)c(O)c(O)c1` [GALLIC ACID METHYL ESTER], for which the inhibition at 100 µM in assay [1] is 16.2%. The same measure, in the same setting: in the case of `O=C1C[C@@H](c2ccc(O)c(O)c2)Oc2cc(O)cc(O)c21` [ERIODICTYOL] it was 24.5%.

Take `COc1cc(-c2oc3cc(O)cc(O)c3c(=O)c2O)ccc1O`: the inhibition entry in assay [2] was “inactive”. Turning to `O=C(O)c1cc(O)c(O)c(O)c1`, in assay [2], the inhibition entry is “inactive”. With `C[C@@H]1O[C@@H](Oc2cc(O)c3c(=O)cc(-c4cc(O)c(O)c(O)c4)oc3c2)[C@H](O)[C@H](O)[C@H]1O`, the inhibition at 100 µM in assay [1] worked out at 41.3%.

On to `COc1cc(O[C@@H]2O[C@H](COC(=O)c3cc(O)c(O)c(O)c3)[C@@H](O)[C@H](O)[C@H]2O)ccc1O`, for which, in assay [1], the inhibition at 100 µM amounted to 22.1%. Same read-out and setting: next, `O=c1c(O[C@@H]2O[C@H](CO)[C@H](O)[C@H](O)[C@H]2O)c(-c2ccc(O)c(O)c2)oc2cc(O)cc(O)c12` [HYPEROSIDE]: 35.2%. Turning to `COc1ccc(C(=O)O)cc1O`, in assay [2], the inhibition result is “inactive”.

With `C[C@H]1O[C@@H](Oc2c(-c3cc(O)c(O)c(O)c3)oc3cc(O)cc(O)c3c2=O)[C@@H](O)[C@@H](O)[C@@H]1O`, in assay [2], the inhibition entry is “inactive”. For the molecule `COc1cc(-c2cc(=O)c3c(O)cc(O)cc3o2)ccc1O` [CHRYSOERIOL], in assay [4], the IC50 worked out at 27.1 µM. In addition, in assay [5], the Ratio was found to be 2. Moreover, the inhibition at 100 µM in assay [1] turned out to be 92.3%. On to `Cc1c(O)c(C)c2c(c1O)C(=O)C[C@@H](c1ccc(O)cc1)O2`, for which the inhibition result in assay [2] is “inactive”. On to `O=c1c(O[C@@H]2OC[C@H](O)[C@H](O)[C@H]2O)c(-c2ccc(O)c(O)c2)oc2cc(O)cc(O)c12` [GUAJAVERIN], for which, in assay [1], the inhibition at 100 µM turned out to be 7.29%. Same read-out and setting: next, `Oc1cc(O)c2c(c1)O[C@H](c1ccc(O)c(O)c1)[C@@H](O)C2` [CIANIDANOL]: 35.1%.

For the molecule `COc1c(O)cc(C=O)cc1O`, in assay [1], the inhibition at 100 µM is 20.8%.

In general, inhibition refers to the percentage by which the read-out fell short of the control. What is called IC50 is the concentration that gives 50% inhibition.
